# Test results: patent US10919941B2, “Functional lipid constructs” (KODE BIOTECH LIMITED, priority 2007, dated 2021)
# No end group written: not given here.
# Experiments:
# Design in all cases: key: 0 or ‘−’ no agglutination; 0 or ‘−’ no agglutination; 1+ or 3=very weak agglutination; 1+ or 3=very weak agglutination; 2+ or 5=weak agglutination; 2+ or 5=weak agglutination; 3+ or 8=moderate strong agglutination; 3+ or 8=moderate strong agglutination; 4+ or 10/12=strong agglutination; 4+ or 10/12=strong agglutination; 4+ or 10/12=strong agglutination
# [1] = tested on: TAP1 serum (Taiwan Miltenberger antibody positive sample); test: Anti-MUT serum (TAP1) reactivity of modified RBCs (saline and AHG); type: cell-based, human; conditions: construct 50 μg/ml
# Method: (§1) The suspensions are either: • 1. incubated for 2 hours at 37° C. before being washed and suspended in a cell medium for serological analysis at a concentration of 0.8 to 3% (Method 1); or • 2. incubated for 3 to 4 hours at room temperature (circa 25° C.) followed by 18 hours at 4° C. before being washed and suspended in a cell medium for serological analysis at a concentration of 0.8 to 3% (Method 2).
# (§2) Serological reactions are graded or scored by either of two established systems (0 or ‘−’ no agglutination, 1+ or 3=very weak agglutination, 2+ or 5=weak agglutination, 3+ or 8=moderate strong agglutination, 4+ or 10/12=strong agglutination)
# [2] = tested on: natural Mi III antibody reactive human serums; test: Positive serum reactivity of modified RBCs in the field; type: cell-based; conditions: 22 at 50, 17 and 24 at 200 μg/ml; 3 h RT then 18 h 4° C.
# Method: as §1, §2
# [3] = tested on: CSL monoclonal anti-A; test: BioVue serology of RBCs modified with Atri-lipid constructs against anti-A; type: cell-based
# Method: To test the hypothesis solutions of four different trisaccharide (Atri)-lipid constructs were prepared as 50 μM, 10 μM and 5 μM solutions in Celpresol™. Modified red blood cells were then prepared by contacting 0.6 mls (pcv) of washed RBCs with 0.6 mls of the relevant solution. The mixtures were incubated at 37° C. for 2 hours and then washed 3 times to provide a modified cell suspension.
# The modified cell suspensions were prepared in 0.8% in Celpresol LISS™ suitable for BioVue serology cards. A volume of 0.05 mls of CSL monoclonal anti-A (026129801) followed by 0.05 mls of modified cell suspension was applied to each card. Reactions were recorded following centrifugation in a BioVue cassette centrifuge (Table 29).
# There was no significant gain with CMG(2) compared with CMG(4). There was a minor, but not significant change for MCMG (2).
substance,measurement,setting,value
"M24: DOPE peptide-lipid construct: Hil peptide EETGETGQLV, leader c, spacer CMG(2) (EETGETGQLVC; also: DOPE peptide-lipid construct via leader Cys, spacer CMG(2))","TAP 1 Serum, AHG score",[1],0
same,"TAP 1 Serum, Saline score",[1],0
same,score vs Mi III reactive serum 912485657-9,[2],0
same,score vs Mi III reactive serum 914146821-8,[2],0
same,score vs Mi III reactive serum 922390844-5,[2],0
same,score vs Mi III reactive serum 926190919-0,[2],0
same,score vs Mi III reactive serum 926555294-1,[2],0
same,score vs Mi III reactive serum 927175131-4,[2],0
same,score vs Mi III reactive serum 927299700-1,[2],0
same,score vs Mi III reactive serum 927516053-2,[2],0
same,score vs Mi III reactive serum 927619701-8,[2],0
same,score vs Mi III reactive serum 932360876-4,[2],0
same,score vs Mi III reactive serum 932467774-5,[2],0
same,score vs Mi III reactive serum 932809044-1,[2],0
same,score vs Mi III reactive serum 942223755-1,[2],0
same,score vs Mi III reactive serum 942404708-4 (row interpreted Mur),[2],0
same,score vs Mi III reactive serum 942404708-4 (row interpreted other),[2],0
same,score vs Mi III reactive serum 942421413-0,[2],0
same,score vs Mi III reactive serum 942423002-4,[2],3
same,score vs Mi III reactive serum 942433813-3,[2],0
same,score vs Mi III reactive serum 942433855-3,[2],8
same,score vs Mi III reactive serum 942442720-2,[2],0
same,score vs Mi III reactive serum 942448627-8,[2],5
same,score vs Mi III reactive serum 942753165-4,[2],8
same,score vs Mi III reactive serum 942762589-1,[2],3
same,score vs Mi III reactive serum 9322338631,[2],0
same,score vs Mi III reactive serum 9325490091,[2],0
same,score vs Mi III reactive serum 9327986660,[2],0
same,score vs Mi III reactive serum 9328118428,[2],5
same,score vs Mi III reactive serum 9328154853,[2],3
same,score vs Mi III reactive serum 9328791834,[2],0
same,score vs Mi III reactive serum 9424248012,[2],0
same,score vs Mi III reactive serum 9424292604,[2],5
same,score vs Mi III reactive serum 9424396133,[2],0
same,score vs Mi III reactive serum 9425256505,[2],8
same,score vs Mi III reactive serum 9427455417,[2],5
same,score vs Mi III reactive serum 9427613497,[2],0
same,score vs Mi III reactive serum 9427615156,[2],0
same,score vs Mi III reactive serum S-3,[2],5
Adipate,"Serological result, anti-A Neat",[3]; construct 5 μM,8
same,"Serological result, reciprocal of dilution of anti-A 2",[3]; construct 5 μM,8
same,"Serological result, reciprocal of dilution of anti-A 4",[3]; construct 5 μM,5
same,"Serological result, reciprocal of dilution of anti-A 8",[3]; construct 5 μM,3
same,"Serological result, anti-A Neat",[3]; construct 10 μM,10
same,"Serological result, reciprocal of dilution of anti-A 2",[3]; construct 10 μM,10
same,"Serological result, reciprocal of dilution of anti-A 4",[3]; construct 10 μM,10
same,"Serological result, reciprocal of dilution of anti-A 8",[3]; construct 10 μM,8
same,"Serological result, reciprocal of dilution of anti-A 16",[3]; construct 10 μM,8
same,"Serological result, reciprocal of dilution of anti-A 32",[3]; construct 10 μM,8
same,"Serological result, reciprocal of dilution of anti-A 64",[3]; construct 10 μM,8
same,"Serological result, reciprocal of dilution of anti-A 128",[3]; construct 10 μM,3
same,"Serological result, anti-A Neat",[3]; construct 50 μM,12
same,"Serological result, reciprocal of dilution of anti-A 2",[3]; construct 50 μM,12
same,"Serological result, reciprocal of dilution of anti-A 4",[3]; construct 50 μM,12
same,"Serological result, reciprocal of dilution of anti-A 8",[3]; construct 50 μM,12
same,"Serological result, reciprocal of dilution of anti-A 16",[3]; construct 50 μM,12
same,"Serological result, reciprocal of dilution of anti-A 32",[3]; construct 50 μM,12
same,"Serological result, reciprocal of dilution of anti-A 64",[3]; construct 50 μM,10
same,"Serological result, reciprocal of dilution of anti-A 128",[3]; construct 50 μM,8
same,"Serological result, reciprocal of dilution of anti-A 256",[3]; construct 50 μM,8
same,"Serological result, reciprocal of dilution of anti-A 512",[3]; construct 50 μM,3
